Test system: participants with SSc-RP
Experiment: Scleroderma Health Assessment Questionnaire (SHAQ): disability indices and visual analog scales
Format: in vivo, human
Method in brief: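 Participants with SSc-RP completed the SHAQ at screening and each in-clinic visit. Standard and alternative disability indices (eight categories, 0–3; standard adjusts for aids/assistance) plus Raynaud's VAS on interference over the past 7 days. Reported as absolute change from baseline to end of each dosing period.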

[1] = Baseline, Tadalafil 5 mg (N = 5), Patients with Diagnosis of SSc, PP Population Part A
[2] = Day 12, Modified ITT, Part A, dose Cilnidipine 10 mg, Tadalafil 5 mg, or 10 mg + 5 mg
[3] = Day 12, Tadalafil 5 mg (N = 5), Patients with Diagnosis of SSc, PP Population Part A
[4] = Day 12, mITT Part A, SSc patients, cilnidipine 10 mg and/or tadalafil 5 mg as in the arm
[5] = Day 12, mITT Part A, SSc patients, cilnidipine 10 mg and/or tadalafil 5 mg as in the arm, subject 01-110 score excluded
[6] = In-Clinic Visit (Day 12), Tadalafil 5 mg (N = 5), Patients with Diagnosis of SSc, PP Population Part A
[7] = Modified ITT, Part A, dose Cilnidipine 10 mg, Tadalafil 5 mg, or 10 mg + 5 mg

CN1CC(=O)N2[C@H](c3ccc4c(c3)OCO4)c3[nH]c4ccccc4c3C[C@@H]2C1=O [Tadalafil, tadalafil]
SHAQ Alternative Disability Index, Mean [1]: 0.450 | SHAQ Alternative Disability Index, Median [1]: 0.375 | SHAQ Standard Disability Index, Mean [1]: 0.550 | SHAQ Standard Disability Index, Median [1]: 0.500 | SHAQ Alternative Disability Index, Change from Baseline, Mean [2]: −0.094 | SHAQ Alternative Disability Index, Change from Baseline, Median [2]: −0.125 | SHAQ Alternative Disability Index, Percent Change from Baseline, Mean [2]: −43.70% | SHAQ Alternative Disability Index, Percent Change from Baseline, Median [2]: −20.00% | SHAQ Finger Ulcers, Change from Baseline, Mean [2]: 0.250 | SHAQ Finger Ulcers, Change from Baseline, Median [2]: 0.000 | SHAQ Finger Ulcers, Percent Change from Baseline, Mean [2]: 6.10% | SHAQ Finger Ulcers, Percent Change from Baseline, Median [2]: 6.10% | SHAQ Standard Disability Index, Change from Baseline, Mean [2]: −0.063 | SHAQ Standard Disability Index, Change from Baseline, Median [2]: −0.063 | SHAQ Standard Disability Index, Percent Change from Baseline, Mean [2]: −9.26% | SHAQ Standard Disability Index, Percent Change from Baseline, Median [2]: −11.11% | SHAQ Visual Analog Scale-Breathing Problems, Change from Baseline, Mean [2]: 0.500 | SHAQ Visual Analog Scale-Breathing Problems, Change from Baseline, Median [2]: 1.050 | SHAQ Visual Analog Scale-Breathing Problems, Percent Change from Baseline, Mean [2]: −2.66% | SHAQ Visual Analog Scale-Breathing Problems, Percent Change from Baseline, Median [2]: 29.58% | SHAQ Visual Analog Scale-Intestinal Problems, Change from Baseline, Mean [2]: −0.125 | SHAQ Visual Analog Scale-Intestinal Problems, Change from Baseline, Median [2]: 0.000 | SHAQ Visual Analog Scale-Intestinal Problems, Percent Change from Baseline, Mean [2]: −6.92% | SHAQ Visual Analog Scale-Intestinal Problems, Percent Change from Baseline, Median [2]: 0.00% | SHAQ Visual Analog Scale-Pain, Change from Baseline, Mean [2]: 1.000 | SHAQ Visual Analog Scale-Pain, Change from Baseline, Median [2]: 0.800 | SHAQ Visual Analog Scale-Pain, Percent Change from Baseline, Mean [2]: 31.35% | SHAQ Visual Analog Scale-Pain, Percent Change from Baseline, Median [2]: 10.81% | SHAQ Visual Analog Scale-Raynaud's, Change from Baseline, Mean [2]: −0.825 | SHAQ Visual Analog Scale-Raynaud's, Change from Baseline, Median [2]: −0.500 | SHAQ Visual Analog Scale-Raynaud's, Percent Change from Baseline, Mean [2]: −19.71% | SHAQ Visual Analog Scale-Raynaud's, Percent Change from Baseline, Median [2]: −20.67% | SHAQ Alternative Disability Index, Change from Baseline, Mean [3]: −0.094 | SHAQ Alternative Disability Index, Change from Baseline, Median [3]: −0.125 | SHAQ Alternative Disability Index, Percent Change from Baseline, Mean [3]: −43.70% | SHAQ Alternative Disability Index, Percent Change from Baseline, Median [3]: −20.00% | SHAQ Standard Disability Index, Change from Baseline, Mean [3]: −0.063 | SHAQ Standard Disability Index, Change from Baseline, Median [3]: −0.063 | SHAQ Standard Disability Index, Percent Change from Baseline, Mean [3]: −9.26% | SHAQ Standard Disability Index, Percent Change from Baseline, Median [3]: −11.11% | SHAQ Alternative Disability Index, Change from Baseline, Mean [4]: −0.094 | SHAQ Alternative Disability Index, Change from Baseline, Median [4]: −0.125 | SHAQ Alternative Disability Index, In-Clinic Visit (Day 12), Mean [4]: 0.375 | SHAQ Alternative Disability Index, In-Clinic Visit (Day 12), Median [4]: 0.250 | SHAQ Alternative Disability Index, Percent Change from Baseline, Mean [4]: −43.70% | SHAQ Alternative Disability Index, Percent Change from Baseline, Median [4]: −20.00% | SHAQ Visual Analogue Scale - Finger Ulcers, Change from Baseline, Mean [4]: 0.250 | SHAQ Visual Analogue Scale - Finger Ulcers, Change from Baseline, Median [4]: 0.000 | SHAQ Visual Analogue Scale - Finger Ulcers, In-Clinic Visit (Day 12), Mean [4]: 2.325 | SHAQ Visual Analogue Scale - Finger Ulcers, In-Clinic Visit (Day 12), Median [4]: 0.050 | SHAQ Visual Analogue Scale - Finger Ulcers, Percent Change from Baseline, Mean [4]: 6.10% | SHAQ Visual Analogue Scale - Finger Ulcers, Percent Change from Baseline, Median [4]: 6.10% | SHAQ Visual Analogue Scale - Intestinal Problems, Change from Baseline, Mean [4]: −0.125 | SHAQ Visual Analogue Scale - Intestinal Problems, Change from Baseline, Median [4]: 0.000 | SHAQ Visual Analogue Scale - Intestinal Problems, In-Clinic Visit (Day 12), Mean [4]: 3.025 | SHAQ Visual Analogue Scale - Intestinal Problems, In-Clinic Visit (Day 12), Median [4]: 1.450 | SHAQ Visual Analogue Scale - Intestinal Problems, Percent Change from Baseline, Mean [4]: −6.92% | SHAQ Visual Analogue Scale - Intestinal Problems, Percent Change from Baseline, Median [4]: 0.00% | SHAQ Visual Analogue Scale - Overall Disease Severity, Change from Baseline, Mean [4]: 0.625 | SHAQ Visual Analogue Scale - Overall Disease Severity, Change from Baseline, Median [4]: 0.700 | SHAQ Visual Analogue Scale - Overall Disease Severity, In-Clinic Visit (Day 12), Mean [4]: 5.600 | SHAQ Visual Analogue Scale - Overall Disease Severity, In-Clinic Visit (Day 12), Median [4]: 6.550 | SHAQ Visual Analogue Scale - Overall Disease Severity, Percent Change from Baseline, Mean [4]: 32.49% | SHAQ Visual Analogue Scale - Overall Disease Severity, Percent Change from Baseline, Median [4]: 26.79% | SHAQ Visual Analogue Scale - Pain, Change from Baseline, Mean [4]: 1.000 | SHAQ Visual Analogue Scale - Pain, Change from Baseline, Median [4]: 0.800 | SHAQ Visual Analogue Scale - Pain, In-Clinic Visit (Day 12), Mean [4]: 5.300 | SHAQ Visual Analogue Scale - Pain, In-Clinic Visit (Day 12), Median [4]: 5.850 | SHAQ Visual Analogue Scale - Pain, Percent Change from Baseline, Mean [4]: 31.35% | SHAQ Visual Analogue Scale - Pain, Percent Change from Baseline, Median [4]: 10.81% | SHAQ Visual Analogue Scale - Raynaud's, Change from Baseline, Mean [4]: −0.825 | SHAQ Visual Analogue Scale - Raynaud's, Change from Baseline, Median [4]: −0.500 | SHAQ Visual Analogue Scale - Raynaud's, In-Clinic Visit (Day 12), Mean [4]: 4.950 | SHAQ Visual Analogue Scale - Raynaud's, In-Clinic Visit (Day 12), Median [4]: 5.200 | SHAQ Visual Analogue Scale - Raynaud's, Percent Change from Baseline, Mean [4]: −19.71% | SHAQ Visual Analogue Scale - Raynaud's, Percent Change from Baseline, Median [4]: −20.67% | SHAQ Visual Analogue Scale - Breathing Problems, Change from Baseline, Mean [5]: 0.500 | SHAQ Visual Analogue Scale - Breathing Problems, Change from Baseline, Median [5]: 1.050 | SHAQ Visual Analogue Scale - Breathing Problems, In-Clinic Visit (Day 12), Mean [5]: 4.300 | SHAQ Visual Analogue Scale - Breathing Problems, In-Clinic Visit (Day 12), Median [5]: 4.000 | SHAQ Visual Analogue Scale - Breathing Problems, Percent Change from Baseline, Mean [5]: −2.66% | SHAQ Visual Analogue Scale - Breathing Problems, Percent Change from Baseline, Median [5]: 29.58% | SHAQ Alternative Disability Index, Mean [6]: 0.375 | SHAQ Alternative Disability Index, Median [6]: 0.250 | SHAQ Standard Disability Index, Mean [6]: 0.531 | SHAQ Standard Disability Index, Median [6]: 0.563 | SHAQ Finger Ulcers, Baseline, Mean [7]: 2.075 | SHAQ Finger Ulcers, Baseline, Median [7]: 0.050 | SHAQ Finger Ulcers, In Clinic Visit (Day 12), Mean [7]: 2.325 | SHAQ Finger Ulcers, In Clinic Visit (Day 12), Median [7]: 0.050 | SHAQ Standard disability index, Baseline, Mean [7]: 0.594 | SHAQ Standard disability index, Baseline, Median [7]: 0.625 | SHAQ Standard disability index, In Clinic Visit (Day 12), Mean [7]: 0.531 | SHAQ Standard disability index, In Clinic Visit (Day 12), Median [7]: 0.563 | SHAQ Visual Analog Scale-Breathing Problems, Baseline, Mean [7]: 3.800 | SHAQ Visual Analog Scale-Breathing Problems, Baseline, Median [7]: 4.050 | SHAQ Visual Analog Scale-Breathing Problems, In Clinic Visit (Day 12), Mean [7]: 4.300 | SHAQ Visual Analog Scale-Breathing Problems, In Clinic Visit (Day 12), Median [7]: 4.000 | SHAQ Visual Analog Scale-Intestinal Problems, Baseline, Mean [7]: 3.150 | SHAQ Visual Analog Scale-Intestinal Problems, Baseline, Median [7]: 2.600 | SHAQ Visual Analog Scale-Intestinal Problems, In Clinic Visit (Day 12), Mean [7]: 3.025 | SHAQ Visual Analog Scale-Intestinal Problems, In Clinic Visit (Day 12), Median [7]: 1.450 | SHAQ Visual Analog Scale-Pain, Baseline, Mean [7]: 5.967 | SHAQ Visual Analog Scale-Pain, Baseline, Median [7]: 7.400 | SHAQ Visual Analog Scale-Pain, In Clinic Visit (Day 12), Mean [7]: 5.300 | SHAQ Visual Analog Scale-Pain, In Clinic Visit (Day 12), Median [7]: 5.850 | SHAQ Visual Analog Scale-Raynaud's, Baseline, Mean [7]: 5.775 | SHAQ Visual Analog Scale-Raynaud's, Baseline, Median [7]: 6.400 | SHAQ Visual Analog Scale-Raynaud's, In Clinic Visit (Day 12), Mean [7]: 4.950 | SHAQ Visual Analog Scale-Raynaud's, In Clinic Visit (Day 12), Median [7]: 5.200 | SHAQ alternative disability index, Baseline, Mean [7]: 0.469 | SHAQ alternative disability index, Baseline, Median [7]: 0.375

Reference: US20240358693A1, “METHODS OF TREATING PAIN” (Aisa Pharma, Inc., priority 2023, published 2024)
